Assay results taken from patent publication US20080293699A1, “Inhibitors of thapsigargin-induced cell death” (priority 2007, published 2008).

Experiments:
[1] = tested on: phospho-eIF2α; test: Immunoblotting of eIF2α phosphorylation in thapsigargin-treated CSM14.1 cells; type: cell-based, rat; conditions: thapsigargin-stimulated CSM14.1, listed as CID-2878746
From the text: (§1) After confirming the pathway selectivity of compounds, additional downstream assays can be performed to map the specific signal transduction pathway inhibited by the compounds. In this regard, various antibody reagents are commercially available for assessing the status of the three major pathways known to be activated by ER stress: (1) PERK, (2) Ire1, and (3) ATF6 (Xu et al., J. Clinical Invest., 115:2656-2664, 2005). Immunoblotting experiments can be performed to assess the expression or phosphorylation (using phospho-specific antibodies) of marker proteins in these pathways. […] Cell lysates were prepared and analyzed by SDS-PAGE/immunoblotting using antibodies specific for phospho-c-Jun, phospho-eIF2α, phospho-p38 MAPK, and tubulin (a loading control). […] After two hrs, cell lysates were prepared, normalized for protein content, and either analyzed by SDS-PAGE/immunoblotting using anti-p38-MAPK pan-reactive antibody or phospho-specific antibody with ECL-based detection, followed by densitometry analysis of x-ray films, normalizing phosphor-p38 MAPK relative to total p38 MAPK, or analyzed using a meso-scale instrument from MSD and a procedure in which total p38 MAPK is captured on plates, and the relative amounts of phosphorylated protein were determined using phospho-specific antibody (MSD catalog #K15112D1). […]

[2] = tested on: phospho-p38 MAPK; test: Thapsigargin-induced p38 MAPK phosphorylation in CSM14.1 cells (immunoblotting and MSD assay); type: cell-based, rat
From the text: as §1

[3] = tested on: HeLa human cervical cancer; test: Thapsigargin-induced death of HeLa cells, ATP content assay; type: cell-based
Procedure: (§2) In addition to CSM14.1 cells, when tested at 25 μM, Compound 5962123 protected by >50% against thapsigargin-induced death of several tumor cell lines (HeLa human cervical cancer, SW1 melanoma cell, PPC1, human prostate cancer), mouse neural stem cell C17.2 (both differentiated [neuronal phenotype] and non-differentiated [stem cell phenotype]) as determined by ATP content assay, and primary rat cortical neurons as determined by microscopy assay measuring the percentage of NeuN-immunopositive cells with either normal or apoptotic nuclear morphology (Hoechst dye staining).
For PC12, cells were stimulated with 20 ng/ml NGF for five days; for C17.2, cells were stimulated with serum reduction, and 1% N2 incubation for three days; for CSM14.1, cells were cultured at 39° C. for 5-7 days.

[4] = tested on: primary rat cortical neurons; test: Thapsigargin-induced death of primary cortical neurons, microscopy assay (NeuN, Hoechst); type: cell-based
Procedure: as §2
Description of secondary screens. The secondary screens used to characterize compound 5962123 (many of which were used to characterize all 11 benzodiazepines) are outlined above. Thirty-one secondary screens have been used to date to characterize compound 5962123. […] Finally, compound 2878746 inhibits thapsigargin-induced cell death of rat primary cortical neurons (identified by staining with NeuN), as determined by counting apoptotic […] (NeuN)-positive cells stained with the DNA-binding fluorochrome Hoechst dye to identify cells with condensed nuclear morphology indicative of apoptosis and evidence of neurite retraction.

Structure (SMILES): CCN(CC)c1ccc(C2Nc3ccccc3NC3=C2C(=O)CC(c2ccccc2)C3)cc1 (centres unmarked) [Compound 5962123, 6-(4-diethylaminophenyl)-9-phenyl-5,6,8,9,10,11-hexahydrobenzo[c][1,5]benzodiazepin-7-one]
- Phosphorylation of eIF2alpha (Ser 51) [1]: not inhibited
- Thapsigargin-induced phosphorylation of p38MAPK ([2]; CSM14.1, immunoblotting and MSD assay, 10 μM, 25 μM hits): inhibits
- IC50 ([2]; quantitative ELISA-methods, thapsigargin-treated CSM14.1, estimated, read-out: IC50 for p38MAPK phosphorylation): < 5 µM
- Protection against thapsigargin-induced death, HeLa ([3]; 25 μM, ATP content assay): > 50%
- Cytoprotective activity in thapsigargin-treated HeLa ([3]; ATP content assay): demonstrated
- Cytoprotective activity, HeLa (Result) ([3]; thapsigargin 15 μM, ATP content, compound ≦25 μM): + (+indicates >50% rescue of cell viability relative to untreated cells not exposed to thapsigargin at compound concentration of ≦25 μM)
- Protection against thapsigargin-induced death, primary rat cortical neurons ([4]; 25 μM, microscopy, NeuN-immunopositive cells, Hoechst nuclear morphology): > 50%
- Inhibition of thapsigargin-induced cell death of rat primary cortical neurons ([4]; counting apoptotic NeuN-positive cells, Hoechst dye): inhibits
